This note sets out measurements from patent publication US20060116325A1, “Methods and compositions for inhibiting hiv-coreceptor interactions” (priority 2001, published 2006).

For one test, the system named is HIV-1JRFL. As to the kind of experiment: HIV-1JRFL infection of monocyte-derived macrophages, p24 ELISA. In kind it is cell-based. The conditions noted are these: for concentration at which significant inhibition of infection was exhibited (as low as): HIV-1JRFL, monocyte-derived macrophages; for inhibition of HIV-1JRFL infection of monocyte-derived macrophages (p24): peptide 1 hr before virus, p24 after 72 hr, FIG. 3. On the procedure:
Monocyte-derived macrophages were treated with the designated concentrations of the indicated peptide for a period of 1 hr prior to addition of HIV-1JRFL. After 2 hr, cells were washed, and viral replication was determined after 72 hr by p24 analysis. Results are representative of 4 independent experiments.
PBMCs were obtained from whole blood of normal donors and isolated by Ficoll-Paque Plus (Pharmacia Biotech, Piscataway, N.J.) density gradient centrifugation, and plated at a cell density of 2×10^6 cells/ml. Monocyte-derived macrophages (MDM) were generated from adherent human peripheral blood mononuclear cells by culture for 7 days with M-CSF (100 ng/ml). Cultures were maintained in RPMI-1640 medium (Life Technologies, Rockville, Md.) supplemented with 10% heat-inactivated endotoxin-free FCS (Hyclone, Logan, Utah), 10 μg/ml gentamicin, and 1 mM glutamine. Cells were treated with designated concentrations of the exemplary peptides 15K or 15D, and after 1 hr cells were infected with HIV-1IIIB (T cell tropic) or HIV-1JRFL (monocyte tropic) at an multiplicity of infection (MOI) of 0.1. After 2 hr, cells were washed, and cultured for additional 48-72 hr, followed by analysis of HIV replication as determined by quantification of accumulated p24 in the supernatant. The production of p24 was determined by conventional sandwich ELISA, using ELISA plates pre-coated with capture anti-p24 antibodies provided by the AIDS Vaccine Program (SAIC Frederick, NCI-FCRDC, Frederick, Md.). The captured p24 antigen was detected using rabbit anti-HIV-1 anti-p24 antibody, and a secondary goat anti-rabbit IgG (peroxidase-labeled) antibody. The captured p24 protein was detected using a 3,3′,5,5′-tetramethylbenzidine and hydrogen peroxide detection system (KPL Laboratories, Gaithersburg, Md.). The reaction was read spectrophotometrically at 450 nm. No cytotoxicity was detectable following treatment of PBMC with the peptides even at a concentration of 100 μg/ml.
The results described in the preceding Examples indicate that the 15K and 15D peptides effectively block the ability of CCR5 to serve as a receptor to mediate chemotactic responses. Additional experiments were thus carried out to determine the capacity of these peptides to inhibit coreceptor activity mediating cellular entry and infection by HIV-1JRFL (a monocyte-tropic HIV strain), using peripheral blood monocyte-derived macrophages.
In general terms: In an ELISA, binding on a coated surface is turned into a signal by an enzyme label.

Test [1] addresses T1, CXCR4 (Homo sapiens, UniProt P61073). The experiment in a line: Ca2+ mobilization in THP-1 cells in response to SDF-1α (fura-2). Conditions: peptide 500 μM preincubated, SDF-1α 100 ng/ml, FIG. 6. In kind it is cell-based. The protocol:
FIGS. 6A through 6D depict the effect of peptide pre-treatment on the mobilization of intracellular Ca^2+ in THP-1 cells in response to SDF-1α. Cells loaded with fura-2 were preincubated with peptide 15K (FIG. 6C), 15D (FIG. 6B) and 15CW (FIG. 6D) at a final concentration of 500 μM for 3 min prior to stimulation with SDF-1α (100 ng/ml).
THP-1 cells (12×10^6/ml in RPMI 1640 containing 10% FSB) were loaded in the presence of 5 μM fura-2 AM (Molecular Probes, Eugene, Oreg.) at 22° C. for 30 min in the dark. Subsequently, cells were washed three times and resuspended (10^6 cells/ml) in the buffer containing 138 mM sodium chloride, 6 mM potassium chloride, 1 mM calcium chloride, 1 mM magnesium chloride, 10 mM HEPES, pH 7.4,5 mM glucose, and 0.1% bovine serum albumin. 1.93 ml of loaded cells was transferred into a quartz cuvette. 50 μl of a peptide stock solution (2×10^−2 M) was added to the cells, and after 3 min of incubation 20 μl of human SDF-1α (10 μg/ml, PeproTech) was added to a stirred cuvette. The measurements were performed using luminescence spectrophotometer LS50 B (Perkin-Elmer). Ca^2+ mobilization in the cells in response to SDF-1α was measured by analysis of the ratio of fluorescence emitted at 510 nm after sequential excitation at 340 and 380 nm.
The increase of intracellular Ca^2+ concentration mediated by a chemokine receptor in response to a cognate chemokine is a reliable assay for measurement of chemokine agonist activity. The human monocytic cell line THP-1 expresses a high level of CXCR4 and responds well to SDF-1α stimulation (FIG. 6A), so these cells were used to determine whether peptides 15D and 15K could block the activation of CXCR4.
A general note: A change in cytosolic calcium serves as a functional read-out for many receptors and channels.

The target of a further test is CCR5 (Homo sapiens, UniProt P51681). As to the kind of experiment: Competition with 125I-MIP-1β binding to HEK-CCR5 cells. More on the design: expressed in transfected cells; host or cells: HEK-293. The conditions noted are these: high concentrations (e.g., 100 μM) of peptide required, FIG. 1. The protocol: (§1) Binding assays were performed with HEK-CCR5 or HEK CXCR4 in triplicate by adding unlabeled competitor (anti-coreceptor binding peptide or control chemokine) and radiolabeled chemokine, 0.2 ng/ml (^125I-MIP-1β or SDF-1α, specific activity 2000 Ci/mmol, NEN Life Science Products) to a cell suspension (4×10^5 cells in 200 μl) in RPMI 1640 supplemented with 1% bovine serum albumin and 25 mM HEPES pH 8.0 (binding medium). Cells were then incubated at 22° C. for 40 min with continuous rotation. After incubation cells were transferred to the tubes containing 800 μl of 10% sucrose in PBS and harvested by centrifugation. The supernatant was aspirated and the cell-associated radioactivity was measured using a 1272 Wallac gamma counter. […] After incubation cells were transferred to the tubes containing 800 μl of 10% sucrose in PBS and harvested by centrifugation, the supematant was aspirated and the cell-associated radioactivity was measured using a 1272 Wallac gamma counter. The data were analyzed by nonlinear regression using the computer program GraphPad Prizm 3.0.
(§2) Considering that the 15K and 15D peptides were designed in part based on their structural similarity to corresponding chemokine fragments, the binding activity of these peptides for CCR5 and/or CXCR4 receptors, and corresponding anti-coreceptor binding activity against chemokines, was assessed.

Test [2] addresses T1, CXCR4. As to the kind of experiment: Competition with radiolabeled SDF-1α binding to HEK-CXCR4 cells. More on the design: host or cells: CEMx174 (174xCEM). The conditions noted are these: high concentrations (e.g., 100 μM) of peptide required, FIG. 1. The protocol:
as §1, §2

T1 sequence (P61073 whole entry): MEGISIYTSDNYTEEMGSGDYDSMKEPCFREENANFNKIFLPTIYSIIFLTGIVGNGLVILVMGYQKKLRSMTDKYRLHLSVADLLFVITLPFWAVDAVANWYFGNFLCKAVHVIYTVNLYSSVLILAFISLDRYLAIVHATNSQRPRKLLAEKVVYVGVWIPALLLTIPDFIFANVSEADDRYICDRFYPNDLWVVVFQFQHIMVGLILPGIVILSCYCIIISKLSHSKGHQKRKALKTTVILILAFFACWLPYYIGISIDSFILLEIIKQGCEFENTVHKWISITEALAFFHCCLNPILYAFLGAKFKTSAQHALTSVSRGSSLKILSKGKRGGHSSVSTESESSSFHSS
CCR5, sequence (P51681 whole entry): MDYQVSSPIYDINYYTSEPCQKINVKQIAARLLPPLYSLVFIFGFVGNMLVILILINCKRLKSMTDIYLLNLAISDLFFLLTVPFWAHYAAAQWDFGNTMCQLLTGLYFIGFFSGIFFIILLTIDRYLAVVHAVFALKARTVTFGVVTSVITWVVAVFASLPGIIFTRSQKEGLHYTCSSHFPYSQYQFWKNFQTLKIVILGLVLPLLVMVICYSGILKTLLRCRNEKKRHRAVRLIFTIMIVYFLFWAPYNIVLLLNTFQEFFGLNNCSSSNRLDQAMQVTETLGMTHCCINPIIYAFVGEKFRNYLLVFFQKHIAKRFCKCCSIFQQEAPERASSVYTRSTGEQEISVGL

Consider “I R K A H C N I S R A D W N D [Peptide 15D]”, for which, in the test on HIV-1JRFL, the “concentration at which significant inhibition of infection was exhibited (as low as)” value was determined as 10 ng/mL and the “inhibition of HIV-1JRFL infection of monocyte-derived macrophages (p24)” value was “significantly reduced monocyte lineage target cell infection”. In addition, at CXCR4 [1], the “inhibition of Ca2+ mobilization in response to SDF-1α” value was “completely inhibited”. Moreover, the “inhibition of radiolabeled MIP-1β binding to cells expressing CCR5” value on CCR5 was “significantly inhibit chemokine binding”. Also, the “inhibition of radiolabeled SDF-1α binding to cells expressing CXCR4” value on CXCR4 [2] is given as “significantly inhibit chemokine binding”.
Take IRKAHCNISRAKWND [Peptide 15K]: in the test with HIV-1JRFL, the “concentration at which significant inhibition of infection was exhibited (as low as)” value is 10 ng/mL and the “inhibition of HIV-1JRFL infection of monocyte-derived macrophages (p24)” value is “significantly reduced monocyte lineage target cell infection”. For the same substance, the “inhibition of Ca2+ mobilization in response to SDF-1α” value on CXCR4 [1] was “inhibited Ca^2+ mobilization although less efficiently than 15D”. Further, the “inhibition of radiolabeled MIP-1β binding to cells expressing CCR5” value on CCR5 is “significantly inhibit chemokine binding”. Further, at CXCR4 [2], the “inhibition of radiolabeled SDF-1α binding to cells expressing CXCR4” value is reported as “significantly inhibit chemokine binding”.
